Measured values from the NIST ThermoML archive (doi:10.1021/acs.jced.7b00761).
± gives the expanded uncertainty stated by the source.

Assay: wn = mass fraction of the nth substance listed
Settings: 313 K, 101.3 kPa, Liquid, w1 = 0.3

CCNCCO [2-(ethylamino)ethanol] + CCN(CC)CCO
viscosity (Vibrating wire viscometry): 3.83 ± 0.21 mPa·s | mass density (petroleum hydrometers): 879 ± 3 kg/m3
